According to patent publication US9376436B2, “2-(pyridin-2yl)-1, 7-diaza-spiro [4.4] nonane-6-one compound as voltage-gated sodium channels modulators” (CONVERGENCE PHARMACEUTICALS LIMITED, priority 2011, dated 2016):
Structures can show the parent of a compound that is named as a salt. Where two headings read alike, the source gives them in different places.

Target: T1, hNaV1.7 (Homo sapiens, UniProt Q15858)
T1 construct: expressed in transfected cells; host or cells: HEK293
Experiment: QPatch NaV1.7 assay (whole-cell patch clamp, QPatch16x)
Assay type: cell-based
Details: HEK293-hNaV1.7 cells
Method in brief: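 HEK293 cells expressing hNaV1.7 recorded by automated whole-cell patch clamp (CsF internal, pH 7.3). Peak currents from 20 ms steps to 0 mV measured at holding potentials of −90 mV and V1/2 SSI; four-point cumulative concentrations, 120 s each, Hill fits gave pIC50 at each potential.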

[1] = holding voltage V1/2 SSI (half of channels inactivated), read-out: QP Nav1.7 SSI vhalf pIC50 (converted)
[2] = holding voltage −90 mV (most channels closed), read-out: QP Nav1.7 −90 mV pIC50 (converted)

T1 sequence (Q15858 whole entry): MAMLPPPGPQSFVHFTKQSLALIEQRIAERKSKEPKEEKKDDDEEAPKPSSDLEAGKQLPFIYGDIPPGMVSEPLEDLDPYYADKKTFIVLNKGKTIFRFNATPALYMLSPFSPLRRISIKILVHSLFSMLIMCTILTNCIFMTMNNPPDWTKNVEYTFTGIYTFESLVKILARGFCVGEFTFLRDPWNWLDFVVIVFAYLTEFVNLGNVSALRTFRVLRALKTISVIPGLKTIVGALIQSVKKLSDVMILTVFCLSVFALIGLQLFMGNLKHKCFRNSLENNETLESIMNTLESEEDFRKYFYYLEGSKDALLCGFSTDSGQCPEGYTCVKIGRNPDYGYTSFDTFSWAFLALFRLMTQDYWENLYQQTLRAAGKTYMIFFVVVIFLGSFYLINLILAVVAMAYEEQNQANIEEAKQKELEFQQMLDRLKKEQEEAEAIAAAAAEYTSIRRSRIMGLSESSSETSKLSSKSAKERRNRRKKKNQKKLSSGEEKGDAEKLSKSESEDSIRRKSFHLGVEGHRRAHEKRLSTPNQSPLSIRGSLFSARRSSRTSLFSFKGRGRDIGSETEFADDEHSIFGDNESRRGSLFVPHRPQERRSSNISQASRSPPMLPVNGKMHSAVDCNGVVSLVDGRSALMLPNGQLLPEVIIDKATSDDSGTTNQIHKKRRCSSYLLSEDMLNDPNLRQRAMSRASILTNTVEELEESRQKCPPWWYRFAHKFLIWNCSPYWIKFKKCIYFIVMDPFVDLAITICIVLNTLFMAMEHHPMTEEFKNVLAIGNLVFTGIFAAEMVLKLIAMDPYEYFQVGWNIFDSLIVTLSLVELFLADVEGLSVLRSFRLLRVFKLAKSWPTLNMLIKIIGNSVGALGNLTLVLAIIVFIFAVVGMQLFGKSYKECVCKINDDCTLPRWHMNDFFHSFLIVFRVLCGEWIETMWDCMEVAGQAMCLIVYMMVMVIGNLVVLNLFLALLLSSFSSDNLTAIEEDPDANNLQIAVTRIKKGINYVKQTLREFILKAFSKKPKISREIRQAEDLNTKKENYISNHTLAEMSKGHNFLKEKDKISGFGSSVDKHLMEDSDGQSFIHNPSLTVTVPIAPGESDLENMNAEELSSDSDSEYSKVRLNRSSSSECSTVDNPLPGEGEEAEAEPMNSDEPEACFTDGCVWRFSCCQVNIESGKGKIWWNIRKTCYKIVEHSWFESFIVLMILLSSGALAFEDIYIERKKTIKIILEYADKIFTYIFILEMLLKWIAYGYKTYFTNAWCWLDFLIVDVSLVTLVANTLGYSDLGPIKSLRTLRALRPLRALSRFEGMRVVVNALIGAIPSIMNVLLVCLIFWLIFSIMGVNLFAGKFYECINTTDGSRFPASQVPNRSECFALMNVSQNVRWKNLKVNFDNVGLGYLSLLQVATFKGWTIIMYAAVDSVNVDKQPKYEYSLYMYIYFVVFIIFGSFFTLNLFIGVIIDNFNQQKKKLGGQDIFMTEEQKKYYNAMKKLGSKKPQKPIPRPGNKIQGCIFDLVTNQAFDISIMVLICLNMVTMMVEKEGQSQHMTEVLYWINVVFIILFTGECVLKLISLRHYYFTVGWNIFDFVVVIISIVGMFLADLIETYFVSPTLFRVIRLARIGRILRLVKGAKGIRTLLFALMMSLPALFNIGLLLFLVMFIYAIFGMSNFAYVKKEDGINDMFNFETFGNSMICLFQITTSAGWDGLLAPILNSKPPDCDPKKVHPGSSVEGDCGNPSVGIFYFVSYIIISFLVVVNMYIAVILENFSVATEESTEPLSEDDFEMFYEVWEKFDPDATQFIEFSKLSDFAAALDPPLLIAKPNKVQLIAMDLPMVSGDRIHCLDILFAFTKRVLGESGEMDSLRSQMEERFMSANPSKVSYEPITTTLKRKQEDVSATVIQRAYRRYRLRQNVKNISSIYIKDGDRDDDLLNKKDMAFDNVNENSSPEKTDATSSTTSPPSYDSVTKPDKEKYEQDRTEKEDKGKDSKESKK

Structure (SMILES)	IC50 [1]	IC50 [2]
CN1CC[C@@]2(CC[C@H](c3cc(-c4ccc(OC(F)F)cc4F)ccn3)N2)C1=O [Example 156, (2R,5S)-2-[4-(4-Difluoromethoxy-2-fluoro-phenyl)-pyridin-2-yl]-7-methyl-1,7-diaza-spiro[4.4]nonan-6-one hydrochloride]	20 µM	126 µM
CN1CC[C@@]2(CC[C@H](c3cc(-c4cn(C)c5ccccc45)ccn3)N2)C1=O [Example 157, (2R,5S)-7-Methyl-2-[4-(1-methyl-1H-indol-3-yl)-pyridin-2-yl]-1,7-diaza-spiro[4.4]nonan-6-one hydrochloride]	25.1 µM	79.4 µM
CC(C)c1ccc(F)c(-c2ccnc([C@H]3CC[C@@]4(CCN(C)C4=O)N3)c2)c1 [Example 159, (2R,5S)-2-[4-(2-Fluoro-5-isopropyl-phenyl)-2-pyridyl]-7-methyl-1,7-diazaspiro[4.4]nonan-6-one hydrochloride]	7.94 µM	31.6 µM
CN1CC[C@@]2(CC[C@H](c3cc(-c4cc(N5CCCC5=O)ccc4F)ccn3)N2)C1=O [Example 160, (2R,5S)-2-[4-[2-Fluoro-5-(2-oxopyrrolidin-1-yl)phenyl]-2-pyridyl]-7-methyl-1,7-diazaspiro[4.4]nonan-6-one hydrochloride]	1580 µM	
CC(C)Oc1ccc(-c2ccnc([C@@H]3CC[C@@]4(CCN(C)C4=O)N3)c2)cc1 [Example 161, (2S,5S)-2-[4-(4-Isopropoxyphenyl)-2-pyridyl]-7-methyl-1,7-diazaspiro[4.4]nonan-6-one hydrochloride]	39.8 µM	126 µM
CC(C)Oc1ccc(-c2ccnc([C@H]3CC[C@@]4(CCN(C)C4=O)N3)c2)cc1 [Example 162, (2R,5S)-2-[4-(4-Isopropoxyphenyl)-2-pyridyl]-7-methyl-1,7-diazaspiro[4.4]nonan-6-one hydrochloride]	3.98 µM	15.8 µM
CN1CC[C@@]2(CC[C@H](c3cc(-c4cccc5cccnc45)ccn3)N2)C1=O [Example 164, (2R,5S)-7-Methyl-2-[4-(8-quinolyl)-2-pyridyl]-1,7-diazaspiro[4.4]nonan-6-one hydrochloride]	39.8 µM	1260 µM
CN1CC[C@@]2(CC[C@H](c3cc(-c4cccc(Cl)c4C#N)ccn3)N2)C1=O [Example 165, 2-Chloro-6-[2-[(2R,5S)-7-methyl-6-oxo-1,7-diazaspiro[4.4]nonan-2-yl]-4-pyridyl]benzonitrile hydrochloride]	100 µM	158 µM

More lines, now with the values ahead:

IC50 [1]	IC50 [2]	Structure (SMILES)
12.6 µM	158 µM	COc1cnc([C@@H]2CC[C@]3(CCN(C)C3=O)N2)cc1-c1ccc(C(F)(F)F)cc1 [Example 153, (2S,5R)-2-[5-Methoxy-4-[4-(trifluoromethyl)phenyl]-2-pyridyl]-7-methyl-1,7-diazaspiro[4.4]nonan-6-one hydrochloride]
12.6 µM	100 µM	COc1cnc([C@@H]2CC[C@@]3(CCN(C)C3=O)N2)cc1-c1ccc(C(F)(F)F)cc1 [Example 154, (2S,5S)-2-[5-Methoxy-4-[4-(trifluoromethyl)phenyl]-2-pyridyl]-7-methyl-1,7-diazaspiro[4.4]nonan-6-one hydrochloride]
3.98 µM	39.8 µM	COc1cnc([C@H]2CC[C@@]3(CCN(C)C3=O)N2)cc1-c1ccc(C(F)(F)F)cc1 [Example 155, (2R,5S)-2-[5-Methoxy-4-[4-(trifluoromethyl)phenyl]-2-pyridyl]-7-methyl-1,7-diazaspiro[4.4]nonan-6-one hydrochloride]
63.1 µM	1260 µM	CCOc1c(F)cccc1-c1ccnc([C@H]2CC[C@@]3(CCN(C)C3=O)N2)c1 [Example 158, (2R,5S)-2-[4-(2-Ethoxy-3-fluoro-phenyl)-2-pyridyl]-7-methyl-1,7-diazaspiro[4.4]nonan-6-one hydrochloride]
	7940 µM	COc1ccc(-c2ccnc([C@H]3CC[C@@]4(CCN(C)C4=O)N3)c2)cc1OC [Example 163, (2R,5S)-2-[4-(3,4-Dimethoxyphenyl)-2-pyridyl]-7-methyl-1,7-diazaspiro[4.4]nonan-6-one hydrochloride]
